Measurements: US20230278995A1, “1,3,4-OXADIAZOLE DERIVATIVE COMPOUNDS AS HISTONE DEACETYLASE 6 INHIBITOR, AND THE PHARMACEUTICAL COMPOSITION COMPRISING THE SAME” (CHONG KUN DANG PHARMACEUTICAL CORP., priority 2020, published 2023)

Columns and labels:
human recombinant HDAC1 = molecular target: T1, human recombinant HDAC1 (Homo sapiens, UniProt Q13547); assay: HDAC enzyme activity inhibition assay (HDAC Fluorimetric Drug Discovery Kit), HDAC1; format: biochemical; details: human recombinant HDAC1, Fluor de Lys-SIRT1 substrate, 30° C. 60 minutes
T1 construct: purchased Enzo Life Sciences, Inc. BML-SE456
T1 sequence (Q13547 whole entry): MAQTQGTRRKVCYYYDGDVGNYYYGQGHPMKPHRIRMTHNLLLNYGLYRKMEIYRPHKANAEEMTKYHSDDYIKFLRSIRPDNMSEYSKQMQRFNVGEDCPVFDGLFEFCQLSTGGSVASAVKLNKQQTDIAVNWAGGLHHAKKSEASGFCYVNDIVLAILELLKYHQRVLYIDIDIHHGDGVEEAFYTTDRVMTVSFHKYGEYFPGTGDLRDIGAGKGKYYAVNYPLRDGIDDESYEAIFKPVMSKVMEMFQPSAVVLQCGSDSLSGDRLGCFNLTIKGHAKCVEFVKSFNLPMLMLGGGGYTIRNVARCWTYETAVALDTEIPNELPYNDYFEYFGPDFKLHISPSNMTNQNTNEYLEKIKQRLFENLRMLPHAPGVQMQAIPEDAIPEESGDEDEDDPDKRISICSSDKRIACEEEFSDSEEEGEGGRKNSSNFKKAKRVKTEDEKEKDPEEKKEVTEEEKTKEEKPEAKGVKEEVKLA
How it was run: (§1)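 Recombinant human HDAC1 or HDAC6 (0.3 μg) reacted with 10 μM Fluor de Lys-SIRT1 substrate at 30 °C for 60 min. Developer added for 30 min, then fluorescence read at Ex 360/Em 460.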

human recombinant HDAC6 = molecular target: T2, human recombinant HDAC6 (Homo sapiens, UniProt Q9UBN7); assay: HDAC enzyme activity inhibition assay (HDAC Fluorimetric Drug Discovery Kit), HDAC6; format: biochemical; details: for HDAC6 selectivity (fold): HDAC1 vs HDAC6; for IC50: human recombinant HDAC6, same protocol as HDAC1
T2 construct: purchased Calbiochem Inc. 382180
T2 sequence (Q9UBN7 1-1215): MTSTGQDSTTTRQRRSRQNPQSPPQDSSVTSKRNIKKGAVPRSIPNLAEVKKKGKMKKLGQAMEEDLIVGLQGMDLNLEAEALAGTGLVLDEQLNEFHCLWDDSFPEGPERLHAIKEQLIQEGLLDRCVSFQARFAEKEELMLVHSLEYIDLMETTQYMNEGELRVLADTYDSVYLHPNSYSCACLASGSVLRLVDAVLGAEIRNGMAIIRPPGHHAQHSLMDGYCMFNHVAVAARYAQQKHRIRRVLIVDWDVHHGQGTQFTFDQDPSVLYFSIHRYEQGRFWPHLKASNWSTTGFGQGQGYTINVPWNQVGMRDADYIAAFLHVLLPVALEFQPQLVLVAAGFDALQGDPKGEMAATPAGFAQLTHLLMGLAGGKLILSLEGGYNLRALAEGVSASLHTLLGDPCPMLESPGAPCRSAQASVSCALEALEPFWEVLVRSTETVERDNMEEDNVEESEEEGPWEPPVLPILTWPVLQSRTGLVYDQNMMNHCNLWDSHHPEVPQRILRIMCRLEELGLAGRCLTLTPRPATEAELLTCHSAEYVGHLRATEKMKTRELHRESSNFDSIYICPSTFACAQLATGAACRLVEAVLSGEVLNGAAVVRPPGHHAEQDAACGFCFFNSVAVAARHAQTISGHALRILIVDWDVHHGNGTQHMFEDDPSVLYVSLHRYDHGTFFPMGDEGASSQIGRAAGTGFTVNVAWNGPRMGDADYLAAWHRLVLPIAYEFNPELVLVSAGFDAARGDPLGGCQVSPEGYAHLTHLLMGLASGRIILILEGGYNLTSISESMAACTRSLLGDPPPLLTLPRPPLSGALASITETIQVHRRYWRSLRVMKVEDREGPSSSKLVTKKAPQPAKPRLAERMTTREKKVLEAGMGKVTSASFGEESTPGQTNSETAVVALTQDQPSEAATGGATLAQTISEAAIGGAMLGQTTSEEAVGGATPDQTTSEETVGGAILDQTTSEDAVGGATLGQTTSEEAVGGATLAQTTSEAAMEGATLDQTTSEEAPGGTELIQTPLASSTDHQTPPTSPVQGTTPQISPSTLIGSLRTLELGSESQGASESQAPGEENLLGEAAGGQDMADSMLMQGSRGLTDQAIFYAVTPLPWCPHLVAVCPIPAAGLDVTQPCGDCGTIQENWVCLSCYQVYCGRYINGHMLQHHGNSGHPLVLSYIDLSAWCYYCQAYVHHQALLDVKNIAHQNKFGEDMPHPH
How it was run: as §1

| Compound | IC50 (human recombinant HDAC1) [nM] | HDAC6 selectivity (fold) (human recombinant HDAC6) | IC50 (human recombinant HDAC6) [nM] |
| --- | --- | --- | --- |
| CCN1CC(F)(C(=O)N(Cc2ccc(-c3nnc(C(F)F)o3)cn2)c2cccc(F)c2)C1 [Compound 3090, N-((5-(5-(difluoromethyl)-1,3,4-oxadiazol-2-yl)pyridin-2-yl)methyl)-1-ethyl-3-fluoro-N-(3-fluorophenyl)azetidine-3-carboxamide] | > 50000 | 2,212 fold | 22.6 |
| O=C(N(Cc1ccc(-c2nnc(C(F)F)o2)cn1)c1cccc(F)c1)C1(F)CCN(C2COC2)CC1 [Compound 2972, N-((5-(5-(difluoromethyl)-1,3,4-oxadiazol-2-yl)pyridin-2-yl)methyl)-4-fluoro-N-(3-fluorophenyl)-1-(oxetan-3-yl)piperidine-4-carboxamide] | > 50000 | 1,190 fold | 42 |
| CCCN1CC(F)(C(=O)N(Cc2ccc(-c3nnc(C(F)F)o3)cn2)c2cccc(F)c2)C1 [Compound 3091, N-((5-(5-(difluoromethyl)-1,3,4-oxadiazol-2-yl)pyridin-2-yl)methyl)-3-fluoro-N-(3-fluorophenyl)-1-propylazetidine-3-carboxamide] | > 50000 | 1,436 fold | 34.8 |
| CCCCN1CCC(N2CC(F)(C(=O)N(Cc3ccc(-c4nnc(C(F)F)o4)cn3)c3cccc(F)c3)C2)CC1 [Compound 3402, 1-(1-butylpiperidin-4-yl)-N-((5-(5-(difluoromethyl)-1,3,4-oxadiazol-2-yl)pyridin-2-yl)methyl)-3-fluoro-N-(3-fluorophenyl)azetidine-3-carboxamide] | > 50000 | 2,403 fold | 20.8 |
| O=C(N(Cc1ccc(-c2nnc(C(F)F)o2)cn1)c1cccc(F)c1)C1(F)CCN(C2CCC2)CC1 [Compound 2971, 1-cyclobutyl-N-((5-(5-(difluoromethyl)-1,3,4-oxadiazol-2-yl)pyridin-2-yl)methyl)-4-fluoro-N-(3-fluorophenyl)piperidine-4-carboxamide] | > 50000 | 740 fold | 67.5 |
| O=C(N(Cc1ccc(-c2nnc(C(F)F)o2)cn1)c1ccccc1)C1(F)CN(C2CCC2)C1 [Compound 2975, 1-cyclobutyl-N-((5-(5-(difluoromethyl)-1,3,4-oxadiazol-2-yl)pyridin-2-yl)methyl)-3-fluoro-N-phenylazetidine-3-carboxamide] | > 50000 | 1,022 fold | 48.9 |
| CC(C)N1CCC(N2CC(F)(C(=O)N(Cc3ccc(-c4nnc(C(F)F)o4)cn3)c3cccc(F)c3)C2)CC1 [Compound 3404, N-((5-(5-(difluoromethyl)-1,3,4-oxadiazol-2-yl)pyridin-2-yl)methyl)-3-fluoro-N-(3-fluorophenyl)-1-(1-isopropylpiperidin-4-yl)azetidine-3-carboxamide] | 25400 | 773 fold | 32.9 |
| CCCCN1CCC(N2CC(F)(C(=O)N(Cc3ccc(-c4nnc(C(F)F)o4)cn3)c3ccccc3)C2)CC1 [Compound 3113, 1-(1-butylpiperidin-4-yl)-N-((5-(5-(difluoromethyl)-1,3,4-oxadiazol-2-yl)pyridin-2-yl)methyl)-3-fluoro-N-phenylazetidine-3-carboxamide] | > 50000 | 1,543 fold | 32.4 |
| O=C(N(Cc1ccc(-c2nnc(C(F)F)o2)cn1)c1ccccc1)C1(F)CN(CC2CCOCC2)C1 [Compound 3216] | > 50000 | 875 fold | 57.1 |
| O=C(N(Cc1ccc(-c2nnc(C(F)F)o2)cn1)c1cccc(F)c1)C1(F)CN(C2CN(C3CCOCC3)C2)C1 [Compound 3399, N-((5-(5-(difluoromethyl)-1,3,4-oxadiazol-2-yl)pyridin-2-yl)methyl)-3-fluoro-N-(3-fluorophenyl)-1′-(tetrahydro-2H-pyran-4-yl)-[1,3′-biazetidine]-3-carboxamide] | 31500 | 1,569 fold | 20.1 |
| CC(C)(C)OC(=O)N1CC(F)(C(=O)N(Cc2ccc(-c3nnc(C(F)(F)F)o3)cn2)c2cccc(F)c2)C1 [Compound 6890, tert-butyl 3-fluoro-3-((3-fluorophenyl)((5-(5-(trifluoromethyl)-1,3,4-oxadiazol-2-yl)pyridin-2-yl)methyl)carbamoyl)azetidine-1-carboxylate] | > 50000 | 57 fold | 877 |
| CC(C)CN1CC(F)(C(=O)N(Cc2ccc(-c3nnc(C(F)F)o3)cn2)c2ccccc2)C1 [Compound 3004, N-((5-(5-(difluoromethyl)-1,3,4-oxadiazol-2-yl)pyridin-2-yl)methyl)-3-fluoro-1-isobutyl-N-phenylazetidine-3-carboxamide] | 26100 | 917 fold | 28.4 |
| CCN1CC(N2CC(F)(C(=O)N(Cc3ccc(-c4nnc(C(F)F)o4)cn3)c3ccccc3)C2)C1 [Compound 3106, N-((5-(5-(difluoromethyl)-1,3,4-oxadiazol-2-yl)pyridin-2-yl)methyl)-1′-ethyl-3-fluoro-N-phenyl-[1,3′-biazetidine]-3-carboxamide] | > 50000 | 1,262 fold | 39.6 |
| CN(C)CCCC(=O)N1CC(F)(C(=O)N(Cc2ccc(-c3nnc(C(F)F)o3)cn2)c2ccccc2)C1 [Compound 3007, N-((5-(5-(difluoromethyl)-1,3,4-oxadiazol-2-yl)pyridin-2-yl)methyl)-1-(4-(dimethylamino)butanoyl)-3-fluoro-N-phenylazetidine-3-carboxamide] | > 50000 | 1,945 fold | 25.7 |
| O=C(N(Cc1ccc(-c2nnc(C(F)F)o2)cc1F)c1ccccc1)C1(F)CCNCC1 [Compound 2865, N-(4-(5-(difluoromethyl)-1,3,4-oxadiazol-2-yl)-2-fluorobenzyl)-4-fluoro-N-phenylpiperidine-4-carboxamide 2,2,2-trifluoroacetate] | > 30000 | 30 fold | 1000 |
| CC(=O)N1CC(F)(C(=O)N(Cc2ccc(-c3nnc(C(F)F)o3)cn2)c2cccc(F)c2)C1 [Compound 3164, 1-acetyl-N-((5-(5-(difluoromethyl)-1,3,4-oxadiazol-2-yl)pyridin-2-yl)methyl)-3-fluoro-N-(3-fluorophenyl)azetidine-3-carboxamide] | > 50000 | 2,808 fold | 17.8 |
| CN1CCC(F)(C(=O)N(Cc2ccc(-c3nnc(C(F)F)o3)cc2F)c2ccccc2)CC1 [Compound 2866, N-(4-(5-(difluoromethyl)-1,3,4-oxadiazol-2-yl)-2-fluorobenzyl)-4-fluoro-1-methyl-N-phenylpiperidine-4-carboxamide] | > 20000 | 149 fold | 134 |
| CN1CCC(F)(C(=O)N(Cc2ccc(-c3nnc(C(F)F)o3)cn2)c2ccccc2)CC1 [Compound 2951, N-((5-(5-(difluoromethyl)-1,3,4-oxadiazol-2-yl)pyridin-2-yl)methyl)-4-fluoro-1-methyl-N-phenylpiperidine-4-carboxamide] | 42600 | 569 fold | 74.7 |
| CCCN1CCC(N2CC(F)(C(=O)N(Cc3ccc(-c4nnc(C(F)F)o4)cn3)c3ccccc3)C2)CC1 [Compound 3112, N-((5-(5-(difluoromethyl)-1,3,4-oxadiazol-2-yl)pyridin-2-yl)methyl)-3-fluoro-N-phenyl-1-(1-propylpiperidin-4-yl)azetidine-3-carboxamide] | > 50000 | 2,024 fold | 24.7 |
| CCCC(=O)N1CC(F)(C(=O)N(Cc2ccc(-c3nnc(C(F)F)o3)cn2)c2cccc(F)c2)C1 [Compound 3165, 1-butyryl-N-((5-(5-(difluoromethyl)-1,3,4-oxadiazol-2-yl)pyridin-2-yl)methyl)-3-fluoro-N-(3-fluorophenyl)azetidine-3-carboxamide] | > 50000 | 2,066 fold | 24.2 |
